Experimental data from the NIST ThermoML archive (doi:10.1016/j.tca.2013.02.010).
Numbers after ± are expanded uncertainties.

Tests used:
[1] = xn = mol fraction of the nth substance listed; details: 308.15 K, 101 kPa, Liquid, Direct dilatometry
[2] = excess molar enthalpy (molar enthalpy of mixing); xn = mol fraction of the nth substance listed; details: 101 kPa, Liquid, Flow calorimetry
[3] = 101.33 kPa, Liquid, Pycnometric method
[4] = refractive index (Na D-line) (dimensionless); details: 298.15 K; 101.33 kPa; Liquid; Standard Abbe refractometry

Work on `NC=O` [formamide] + CCCO yielded an excess molar volume ([1]; x1 = 0.0615) of -3e-08 ± 2e-09 m3/mol, an excess molar volume ([1]; x1 = 0.1052) of -4.3e-08 ± 2e-09 m3/mol and an excess molar volume ([1]; x1 = 0.165) of -6e-08 ± 3e-09 m3/mol. The excess molar volume ([1]; x1 = 0.1937) was -6.9e-08 ± 3e-09 m3/mol, the excess molar volume ([1]; x1 = 0.2453) was -7.8e-08 ± 3e-09 m3/mol and the excess molar volume ([1]; x1 = 0.2856) was -9.1e-08 ± 3e-09 m3/mol. The excess molar volume ([1]; x1 = 0.3317) was -1.05e-07 ± 3e-09 m3/mol, the excess molar volume ([1]; x1 = 0.372) was -1.12e-07 ± 3e-09 m3/mol and the excess molar volume ([1]; x1 = 0.3949) was -1.25e-07 ± 3e-09 m3/mol. The excess molar volume ([1]; x1 = 0.4236) was -1.35e-07 ± 4e-09 m3/mol, the excess molar volume ([1]; x1 = 0.4639) was -1.48e-07 ± 4e-09 m3/mol and the excess molar volume ([1]; x1 = 0.5213) was -1.61e-07 ± 4e-09 m3/mol. It also gave an excess molar volume ([1]; x1 = 0.5903) of -1.71e-07 ± 4e-09 m3/mol, an excess molar volume ([1]; x1 = 0.6394) of -1.71e-07 ± 4e-09 m3/mol and an excess molar volume ([1]; x1 = 0.6765) of -1.68e-07 ± 4e-09 m3/mol. For the same molecule, the excess molar volume ([1]; x1 = 0.7225) was -1.59e-07 ± 4e-09 m3/mol, the excess molar volume ([1]; x1 = 0.7686) was -1.42e-07 ± 4e-09 m3/mol and the excess molar volume ([1]; x1 = 0.8031) was -1.23e-07 ± 3e-09 m3/mol. It also gave an excess molar volume ([1]; x1 = 0.8492) of -1e-07 ± 3e-09 m3/mol, an excess molar volume ([1]; x1 = 0.8837) of -7.8e-08 ± 3e-09 m3/mol and an excess molar volume ([1]; x1 = 0.9124) of -5.5e-08 ± 2e-09 m3/mol. It also gave an excess molar volume ([1]; x1 = 0.9411) of -3.3e-08 ± 2e-09 m3/mol, an excess molar enthalpy ([2]; 298.15 K, x1 = 0.0624) of 0.0614 ± 0.0012 kcal/mol and an excess molar enthalpy ([2]; 298.15 K, x1 = 0.0881) of 0.082 ± 0.0012 kcal/mol. It also gave an excess molar enthalpy ([2]; 298.15 K, x1 = 0.1208) of 0.105 ± 0.00143 kcal/mol, an excess molar enthalpy ([2]; 298.15 K, x1 = 0.1479) of 0.123 ± 0.00143 kcal/mol and an excess molar enthalpy ([2]; 298.15 K, x1 = 0.1832) of 0.141 ± 0.00143 kcal/mol. For the same molecule, the excess molar enthalpy ([2]; 298.15 K, x1 = 0.2231) was 0.156 ± 0.00167 kcal/mol, the excess molar enthalpy ([2]; 298.15 K, x1 = 0.254) was 0.166 ± 0.00167 kcal/mol and the excess molar enthalpy ([2]; 298.15 K, x1 = 0.3018) was 0.1757 ± 0.00167 kcal/mol. For the same molecule, the excess molar enthalpy ([2]; 298.15 K, x1 = 0.3775) was 0.1809 ± 0.00167 kcal/mol, the excess molar enthalpy ([2]; 298.15 K, x1 = 0.452) was 0.1788 ± 0.00167 kcal/mol and the excess molar enthalpy ([2]; 298.15 K, x1 = 0.4832) was 0.1771 ± 0.00167 kcal/mol. The excess molar enthalpy ([2]; 298.15 K, x1 = 0.5364) was 0.1678 ± 0.00167 kcal/mol, the excess molar enthalpy ([2]; 298.15 K, x1 = 0.5953) was 0.158 ± 0.00167 kcal/mol and the excess molar enthalpy ([2]; 298.15 K, x1 = 0.6672) was 0.1441 ± 0.00143 kcal/mol. The excess molar enthalpy ([2]; 298.15 K, x1 = 0.6958) was 0.137 ± 0.00143 kcal/mol, the excess molar enthalpy ([2]; 298.15 K, x1 = 0.7521) was 0.122 ± 0.00143 kcal/mol and the excess molar enthalpy ([2]; 298.15 K, x1 = 0.7958) was 0.109 ± 0.00143 kcal/mol. For the same molecule, the excess molar enthalpy ([2]; 298.15 K, x1 = 0.8443) was 0.0913 ± 0.0012 kcal/mol, the excess molar enthalpy ([2]; 298.15 K, x1 = 0.8956) was 0.0686 ± 0.0012 kcal/mol and the excess molar enthalpy ([2]; 298.15 K, x1 = 0.9208) was 0.0559 ± 0.0012 kcal/mol. It also gave an excess molar enthalpy ([2]; 298.15 K, x1 = 0.9526) of 0.0361 ± 0.000956 kcal/mol, an excess molar enthalpy ([2]; 298.15 K, x1 = 0.9666) of 0.028 ± 0.000956 kcal/mol and an excess molar enthalpy ([2]; 308.15 K, x1 = 0.0582) of 0.0631 ± 0.0012 kcal/mol. For the same molecule, the excess molar enthalpy ([2]; 308.15 K, x1 = 0.079) was 0.0825 ± 0.0012 kcal/mol, the excess molar enthalpy ([2]; 308.15 K, x1 = 0.104) was 0.103 ± 0.00143 kcal/mol and the excess molar enthalpy ([2]; 308.15 K, x1 = 0.1374) was 0.125 ± 0.00143 kcal/mol. It also gave an excess molar enthalpy ([2]; 308.15 K, x1 = 0.1624) of 0.141 ± 0.00143 kcal/mol, an excess molar enthalpy ([2]; 308.15 K, x1 = 0.2082) of 0.164 ± 0.00167 kcal/mol and an excess molar enthalpy ([2]; 308.15 K, x1 = 0.2416) of 0.1769 ± 0.00167 kcal/mol. For the same molecule, the excess molar enthalpy ([2]; 308.15 K, x1 = 0.275) was 0.1869 ± 0.00167 kcal/mol, the excess molar enthalpy ([2]; 308.15 K, x1 = 0.3332) was 0.1979 ± 0.00191 kcal/mol and the excess molar enthalpy ([2]; 308.15 K, x1 = 0.4124) was 0.202 ± 0.00191 kcal/mol. For the same molecule, the excess molar enthalpy ([2]; 308.15 K, x1 = 0.4666) was 0.2036 ± 0.00191 kcal/mol, the excess molar enthalpy ([2]; 308.15 K, x1 = 0.5082) was 0.1986 ± 0.00191 kcal/mol and the excess molar enthalpy ([2]; 308.15 K, x1 = 0.5666) was 0.1919 ± 0.00191 kcal/mol. The excess molar enthalpy ([2]; 308.15 K, x1 = 0.625) was 0.1769 ± 0.00167 kcal/mol, the excess molar enthalpy ([2]; 308.15 K, x1 = 0.679) was 0.164 ± 0.00167 kcal/mol and the excess molar enthalpy ([2]; 308.15 K, x1 = 0.725) was 0.15 ± 0.00167 kcal/mol. For the same molecule, the excess molar enthalpy ([2]; 308.15 K, x1 = 0.775) was 0.131 ± 0.00143 kcal/mol, the excess molar enthalpy ([2]; 308.15 K, x1 = 0.8166) was 0.113 ± 0.00143 kcal/mol and the excess molar enthalpy ([2]; 308.15 K, x1 = 0.8666) was 0.0877 ± 0.0012 kcal/mol. It also gave an excess molar enthalpy ([2]; 308.15 K, x1 = 0.9124) of 0.0621 ± 0.0012 kcal/mol, an excess molar enthalpy ([2]; 308.15 K, x1 = 0.9416) of 0.0425 ± 0.000956 kcal/mol and an excess molar enthalpy ([2]; 308.15 K, x1 = 0.9582) of 0.0306 ± 0.000956 kcal/mol.

With `CCCO` [propan-1-ol] the mass density ([3]; 298.15 K) was 799.76 ± 0.7 kg/m3, the mass density ([3]; 308.15 K) was 791.48 ± 0.71 kg/m3 and the refractive index [4] was 1.3835 ± 0.0008.
